From patent EP4772500A1, “NOVEL ISOXAZOLE COMPOUND AS TM4SF5-SPECIFIC INHIBITOR AND USE THEREOF” (Seoul National University R&DB Foundation, priority 2023, dated 2025)

What was measured:
Format in all cases: cell-based, human
[1] = tested on: TM4SF5-expressing cells (SNU449T7); test: Western blotting for signaling factors whose phosphorylation increases in a TM4SF5-expression dependent manner; conditions: for phosphorylation of FAK, c-Src, STAT3, p27, S6K1, AKT, and STAT5: 5 µM, 24 hours (FIG. 9a-b); for phosphorylation of FAK, STAT3, c-Src, S6K1, Akt, and p27: given concentrations
Protocol: (§1) Cell extracts were obtained from cells grown to a density of 70-80% without any treatment, or from cells treated with vehicle DMSO or drugs at the given concentrations for 24 hours. For the extract of hepatocytes or liver cancer cells, a lysis buffer (150 mM NaCl, 1% NP-40, 50 mM Tris-HCl, 0.25% sodium deoxycholate, pH 7.4) including a protease inhibitor cocktail (GenDEPOT) was used. In addition, after washing animal liver tissue twice with PBS, SDS, Na3VO4, and protease inhibitor cocktails (GenDEPOT) were added to a lysis buffer [50 mM Tris-HCl, pH 7.4, 1% NP40, 0.25% sodium deoxycholate, 150 mM NaCl, 1 mM EDTA (based on 500 ml)], followed by treatment at 4°C for 15 minutes. After centrifugation at 13,000 rpm at 4°C for 30 minutes, only the supernatant was transferred to a new microcentrifuge tube. After quantification using BCA reagent (Thermo Scientific), a 4 × sample buffer [100% glycerol 4 ml, Tris-HCl, pH 6.8, 2.4 ml, SDS 0.8 g, Bromophenol blue 4 mg, betamercaptoethanol 0.4 ml, H2O 3.1 ml (based on 10 ml)] was added, followed by boiling at 100°C for 5 minutes. After performing SDS-PAGE electrophoresis with the above samples and transferring them to Nitrocellulose Membranes Protran™ nitrocellulose membranes (Whatman), pre-treatment was performed with 5% skim milk for 1 hour. After pre-treatment, primary antibodies of p-FAK(Y861) (SC-16663), p-FAK(Y577) (SC-16665), c-Src (SC-8056), STAT3 (SC-8019), p-AKT 1/2/3(S473) (SC-7985), STATS (SC-835), Laminin γ2 (SC-393225), COL1A1 (SC-28657), CCL5(RANTES) (SC-514019) CCL20(MIP-3α) (SC-517441), SIRT1 (SC-74465), ChREBP (SC-515922), SREBP1 (SC-366513), DGAT1 (SC-271934), DGAT2 (SC-293211), MICA/B (SC-137242), SLAMF7 (SC-390840), α-tublin (SC-5286), β-actin (SC-47778), FUCA (SC-365496) (the above from Santa Cruz Biotech, USA), p-FAK(Y397) (cat # 611723), FAK (cat # 610088), p27 (cat # 610242) (the above from BD Transduction, USA), p-FAK(Y925) (#3284) p-c-Src(Y416) (#2101), p-STAT3(Y705) (#9145), p70S6K1 (#9202), p-p70S6K1(T389) (#9205), p-STAT5(Y694) (#9314), ACC (#3676), FASN (#3189), CPT1A (#12252), p-ACC(S79) (#11818), HA (#3724), PD-L1 (#13684), PD-1 (#86163), p-ERK1/2(T202/Y204) (#9101s), ERK1/2 (#9102s) (the above from Cell Signaling Tech., USA), pS10p27(S10) (ab62364), human SLAMF6 (ab224201), TIGIT (ab233404), CD34 (ab81289) (the above from Abcam, UK), mouse SLAMF6 (PA5-87823), NKG2D (PA5-102038) (the above from Thermofisher, USA), α-SMA (Sigma Aldrich, A5228), CCL2 (Invitrogen, MA5-17040), and CD155(PVR) (Biolegend, 337601), HA (Biolegend, USA), Strep-HRP(horse-radish peroxidase), StrepMAB-HRP (IBA, USA), AFP (FineTest, FNab00203) were reacted at 4°C for 15 hours. The next day, secondary antibodies were reacted, and development was performed on X-ray film using ECL (Pierce, USA). Anti-TM4SF5C-ter (epitope region of RKKQDTPH^197) and anti-TM4SF5EC2 (CLMNGEWGYHFEDTAGA^130) were custom-made at a professional antibody production company (Pro-Sci, Poway, CA, USA).
Cell extracts were obtained before and after treating TM4SF5-non-expressing cells (SNU449Cp) and TM4SF5-expressing cells (SNU449T7) with ST-1-024 or ST-1-025 drugs at the given concentrations for 24 hours, and Western blotting was performed for signaling factors whose phosphorylation and activity increase in a TM4SF5-expression dependent manner.
(a) Cell extracts were obtained after treating TM4SF5-non-expressing cells (SNU449Cp) and TM4SF5-expressing cells (SNU449T7) with vehicle (DMSO), TSAHC, or isoxazole compounds ST-2-001, ST-2-002, ST-2-003, ST-2-004, ST-2-005, ST-2-006, ST-2-007, ST-2-008, ST-2-009, ST-2-010, or ST-2-011 at a dose of 5 µM (for 24 hours). Using these, Western blotting was performed for signaling factors whose phosphorylation and activity increase in a TM4SF5-expression dependent manner. […]

[2] = tested on: TM4SF5-non-expressing cells (SNU449Cp); test: Western blotting for signaling factor phosphorylation in TM4SF5-non-expressing cells; conditions: 5 µM, 24 hours (FIG. 9a-b, blue-lined boxes)
Protocol: as §1
(a) Cell extracts were obtained after treating TM4SF5-non-expressing cells (SNU449Cp) and TM4SF5-expressing cells (SNU449T7) with vehicle (DMSO), ST-2-001, or an ST-2-001-based derivative drug at a concentration of 5 µM for 24 hours. (b) Cell extracts were obtained after treating SNU449Cp and SNU449T7 with DMSO, ST-2-001, ST-3-001, ST-3-006, ST-3-007, ST-3-010, or ST-3-011 at a concentration of 5 µM for 24 hours. (c) Cell extracts were obtained after treating SNU449Cp and SNU449T7 with DMSO, ST-2-001, ST-3-006, or ST-3-011 at the given concentrations for 24 hours. (a-c) Using the cell extracts obtained after the drug treatment, Western blotting was performed for signaling factors whose phosphorylation and activity increase in a TM4SF5-expression dependent manner.

[3] = tested on: TM4SF5-expressing cells (SNU449T7); test: 3D sphere growth/proliferation
Protocol: TM4SF5-non-expressing cells (SNU449Cp) and TM4SF5-expressing cells (SNU449T7) of the same number (200 cells/well or 1000 cells/well) were added per well into Costar Ultra-Low Attachment Multiple Well Plates (CORNING), and were then treated with vehicle (DMSO) or drugs at various concentrations and cultured in a cell incubator under conditions of 37°C and 5% CO2. After repeatedly treating with the same concentrations of drugs every few days at regular intervals as indicated from the date of cell culture, the proliferation of the cells (spheres) was observed and photographed using an optical microscope on the last day of observation.
The drugs treated were the positive control drug TSAHC or the ST-1-025 isoxazole compound at the given concentrations. From the time of starting culture (0 day), (FIG. 3a) in the case of 2D culture, the number of cells was measured after treating with the drug every 24 hours, or (FIG. 3b) in a 3D environment, the proliferation of cells (spheres) was observed and photographed with an optical microscope on the 5th and 7th days after a single drug treatment at the start of culture. […]

SNU761-TM4SF5 = test: Western blotting of SLAMF7 expression, TM4SF5-expressing SNU761 cells; conditions: chloroquine 10 µM, 24 hours (FIG. 15d)
Protocol: as §1, with “Anti-TM4SF5C-ter (epitope region of RKKQDTPH^197) and anti-TM4SF5EC2 (CLMNGEWGYHFEDTAGA^130) were custom-made at a professional antibody production company (Pro-Sci, Poway, CA, USA).” left out
After 24 hours, vehicle DMSO, drug ST-1-025, or ST-5-002 was treated at the given concentrations. […] (f) After treating NK92-EV or NK92-TM4SF5 cells with DMSO or drugs ST-2-001 (1 nM), ST-3-005 (10 nM or 1 µM), ST-5-001, or ST-5-002 (100 nM or 1 µM) for 24 hours, the expression of SLAMF7 expressed on the cell surface was analyzed through immunostaining using flow cytometry. The expression level of SLAMF7 was confirmed by adding a SLAMF7 antibody to bind with SLAMF7 and then measuring the fluorescence linked to the SLAMF7 antibody using flow cytometry. […]

[4] = 0.5 or 2.5 µM, observed 6th or 10th day (FIG. 10a, b)

SMILES | phosphorylation of FAK, c-Src, STAT3, p27, S6K1, AKT, and STAT5 [1] | phosphorylation of some signaling factors [2] | degree of three-dimensional cell proliferation [3, 4] | other results
C=CC(=O)Nc1ccc(-c2cc(-c3ccc(OC)cc3)on2)cc1 [ST-3-010, N-(4-(5-(4-methoxyphenyl)isoxazole-3-yl)phenyl)acrylamide] | decreased | increased | inhibited | degree of three-dimensional cell proliferation ([3]; 0.1 or 1.0 µM, observed 10th day (FIG. 10c)): decreased; cell proliferation inhibitory effect ([3]; 0.5 or 2.5 µM (FIG. 10a, b), comparison among drugs): strong
CCN(CC)CCCC(C)Nc1ccnc2cc(Cl)ccc12 (stereo not drawn) [CQ, chloroquine, reference compound] | – | – | – | reduction in SLAMF7 expression (SNU761-TM4SF5): not clearly seen
CC(=O)Nc1ccc(-c2cc(-c3ccc(C(C)(C)C)cc3)on2)cc1 [ST-3-007, N-(4-(5-(4-(tert-butyl)phenyl)isoxazole-3-yl)phenyl)acetamide] | decreased | increased | inhibited | –
Cc1ccc(S(=O)(=O)Nc2ccc(-c3cc(-c4ccc(O)cc4)no3)cc2)cc1 [ST-4-005, N-(4-(3-(4-hydroxyphenyl)isoxazole-5-yl)phenyl)-4-methylbenzenesulfonamide] | – | – | – | phosphorylation of FAK, STAT3, c-Src, S6K1, Akt, and p27 ([1]; 24 hours (FIG. 12a)): inhibited in many cases including STAT3, S6K1, and FAK; phosphorylation of FAK, STAT3, c-Src, S6K1, Akt, and p27 ([1]; 24 hours (FIG. 12d)): inhibited; survival/proliferation of the spheres ([3]; given concentrations on the 0, 3, 6, and 9th days, observed 10th day (FIG. 12b-c)): inhibited
